The subject of test [1] is L. monocytogenes 149. The test is described as follows: MIC for metabolic activity of preformed biofilm (MTT reduction assay). The note with it: ≥80% inhibition, 20 h with substance. The class given is cell-based, Listeria monocytogenes. How it is done: (§1) Ten concentrations of NAC, RLs, and UA were tested to determine the minimum inhibitory concentration for planktonic growth, and subsequently, the six highest concentrations were applied on preformed biofilms to evaluate the biofilm eradication ability of the compounds. MIC was defined as the lowest substance concentration able to inhibit at least 80% of microbial growth (MICPC80 for planktonic cells, MICBC80 for further growth of biofilm cells), inhibit 80% of metabolic activity (MICBM80 for biofilm metabolic activity, MICMPB80 for metabolic activity of preformed biofilm), prevent biofilm formation by at least 80% (MICBF80 for biofilm formation), or reduce a preformed biofilm by at least 80% (MICBR80 for biofilm reduction). The results of MICs are summarized in Table 1 (planktonic cells) and Table 2 (biofilm-associated cells).
(§2) The determination of MICs was performed according to Chlumsky et al.. Briefly, 96-well flat-bottomed microtiter plates were inoculated with 75 µL (for biofilm formation) or 100 µL (for preformed biofilm) of bacterial suspension (A625nm 0.08 to 0.1) in technical triplicates and were then carefully mixed with the dilution series of the test substances (24 h cultivation at 25 °C for S. Infantis, 37 °C for other strains) or were directly cultivated to preform biofilms (18 h). For a positive control of bacterial growth, the inoculum was mixed with a pure sterile medium. […] To evaluate planktonic cells growth (MICPC80) and further growth of biofilm cells (MICBC80), the optical density of the content of the microtiter plates was measured spectrophotometrically at 625 nm before and after 24 h (for biofilm formation) of cultivation or before and after additional 20 h incubation with the tested compound (for preformed biofilm). […] To evaluate the inhibition of biofilm formation (MICBF80) and reduction in preformed biofilms (MICBR80), biomass was quantified using crystal violet staining, and its metabolic activity (MICBM80 and MICMPB80) was estimated by using the MTT (thiazyl tetrazolium bromide, Sigma-Aldrich, USA) reduction assay, both measured spectrophotometrically at 595 nm.
(§3) All inhibitions were calculated using the formula of Chlumsky et al. below (Equation (1)):(1) A625(595)nm inhibition (%)=A625(595)nm (control) – A625(595)nm(natural substance)/A625(595)nm (control)× 100 where A625(595)nm (control) is the absorbance of bacterial suspension/biofilm itself, and A625(595)nm(natural substance) is the absorbance of the bacterial suspension/biofilm with the added natural substance (NAC, RLs, and UA).
(§4) When the minimum inhibitory concentration could not be determined, the MIC was established as >the highest tested concentration for NAC, RLs, and UA.

Test [2] relates to L. monocytogenes 164. The test is described as above. It counts as cell-based, Listeria monocytogenes. The note with it: ≥80% inhibition, 20 h with substance. How it is done: as §1, §2, §3, §4
Test [3] has as its system L. monocytogenes 149. The test is described as follows: MIC for further growth of biofilm cells, preformed biofilm (A625nm). The conditions noted are these: ≥80% inhibition, 18 h preformed biofilm, 20 h with substance. The class given is cell-based, Listeria monocytogenes. How it is done:
as §1, §2, §3, §4

For test [4], the system named is L. monocytogenes 164. The test is described as above. The note with it: ≥80% inhibition, 18 h preformed biofilm, 20 h with substance. The class given is cell-based, Listeria monocytogenes. The method, then:
as §1, §2, §3, §4

The subject of a further test is E. coli 693/17. The test is described as follows: MIC for metabolic activity of preformed biofilm (MTT reduction assay). It counts as cell-based, Escherichia coli. The method, then:
as §1
(§5) The determination of MICs was performed according to Chlumsky et al.. Briefly, 96-well flat-bottomed microtiter plates were inoculated with 75 µL (for biofilm formation) or 100 µL (for preformed biofilm) of bacterial suspension (A625nm 0.08 to 0.1) in technical triplicates and were then carefully mixed with the dilution series of the test substances (24 h cultivation at 25 °C for S. Infantis, 37 °C for other strains) or were directly cultivated to preform biofilms (18 h). For a positive control of bacterial growth, the inoculum was mixed with a pure sterile medium. Furthermore, the sterile medium was included in the plate as a marker of potential microbial contamination. To evaluate planktonic cells growth (MICPC80) and further growth of biofilm cells (MICBC80), the optical density of the content of the microtiter plates was measured spectrophotometrically at 625 nm before and after 24 h (for biofilm formation) of cultivation or before and after additional 20 h incubation with the tested compound (for preformed biofilm). The difference of A625nm was considered as a measure of the ability of cells to grow in the presence of the tested substances. To evaluate the inhibition of biofilm formation (MICBF80) and reduction in preformed biofilms (MICBR80), biomass was quantified using crystal violet staining, and its metabolic activity (MICBM80 and MICMPB80) was estimated by using the MTT (thiazyl tetrazolium bromide, Sigma-Aldrich, USA) reduction assay, both measured spectrophotometrically at 595 nm.
as §3, §4
Background: Tetrazolium assays rely on reduction of a dye to a coloured formazan, in cell work by metabolically active cells.

The next test deals with E. coli 683/17. The test is described as above. It counts as cell-based, Escherichia coli. The note with it: for MICMPB80: ≥80% inhibition, 20 h with substance. The method, then: as §1, §5, §3, §4
The test system of test [5] is S. Enteritidis ATCC 13076. The test is described as follows: MIC for biofilm formation (crystal violet staining). The class given is cell-based, Salmonella enterica Enteritidis. The conditions noted are these: for MICBF80: ≥80% prevention, 24 h. The method, then:
as §1
The determination of MICs was performed according to Chlumsky et al.. […] To evaluate planktonic cells growth (MICPC80) and further growth of biofilm cells (MICBC80), the optical density of the content of the microtiter plates was measured spectrophotometrically at 625 nm before and after 24 h (for biofilm formation) of cultivation or before and after additional 20 h incubation with the tested compound (for preformed biofilm). […] To evaluate the inhibition of biofilm formation (MICBF80) and reduction in preformed biofilms (MICBR80), biomass was quantified using crystal violet staining, and its metabolic activity (MICBM80 and MICMPB80) was estimated by using the MTT (thiazyl tetrazolium bromide, Sigma-Aldrich, USA) reduction assay, both measured spectrophotometrically at 595 nm.
All inhibitions were calculated using the formula of Chlumsky et al. below (Equation (1)):(1) A625(595)nm inhibition (%)=A625(595)nm (control) – A625(595)nm(natural substance)/A625(595)nm (control)× 100 where A625(595)nm (control) is the absorbance of bacterial suspension/biofilm itself, and A625(595)nm(natural substance) is the absorbance of the bacterial suspension/biofilm with the added natural substance (NAC, RLs, and UA). […]

`CC(=O)c1c(O)c(C)c(O)c2c1OC1=CC(=O)C(C(C)=O)C(=O)C12C` (single isomer, unassigned; (+)) [UA, (+)-usnic acid]: the MICMPB80 in the test on L. monocytogenes 149 [1] was 3.91 µg/mL; against L. monocytogenes 164 [2], 1.96 µg/mL; against E. coli 683/17 it was more than 31.3 µg/mL. The MICBC80 with L. monocytogenes 149 [3] and against L. monocytogenes 164 [4] was 1.96 µg/mL each time. Besides, the “maximal achieved inhibition (MICMPB80 not reached)” value stood at 20% in the test on E. coli 693/17 (within tested concentrations) and 45% in the test with E. coli 683/17 (within tested concentrations). In test [5] (within tested concentrations), the “maximal achieved inhibition (MICBF80 not reached)” value amounted to 25%. The compound also had an MICBF80 in test [5] of more than 31.3 µg/mL.
In the case of `CC(=O)N[C@@H](CS)C(=O)O` [NAC, N-Acetyl-L-cysteine], the MICMPB80 was 6250 µg/mL in the test with L. monocytogenes 149 [1]; 6250 µg/mL against L. monocytogenes 164 [2]; 12,500 µg/mL with E. coli 693/17 (≥80% inhibition, 20 h with substance); 12,500 µg/mL in the test on E. coli 683/17. For the same compound, the MICBC80 against L. monocytogenes 149 [3] and in the test on L. monocytogenes 164 [4] was 3130 µg/mL throughout. Also, the MICBF80 in test [5] was 12,500 µg/mL.

The values are drawn from PMC8583417, “Evaluation of the Antimicrobial Efficacy of N-Acetyl-L-Cysteine, Rhamnolipids, and Usnic Acid—Novel Approaches to Fight Food-Borne Pathogens” (International Journal of Molecular Sciences, 2021).
